The values below come from patent publication US11753407B2, “Compounds for treating spinal muscular atrophy” (PTC Therapeutics, Inc., priority 2012, dated 2023).

Structures are written as SMILES.

For data set [1], the system named is Smn protein in SMA patient fibroblast cells (GM03813). The data set is described as follows: Smn protein assay in cultured cells (SMN HTRF). In kind it is cell-based, human. As to conditions: SMA patient fibroblast cells, 48 hours; for EC1.5x for Smn protein expression: 7-point concentration curve, SMN HTRF, concentration producing 1.5 times Smn protein vs DMSO vehicle control; for maximum fold (Fold) increase of Smn protein: 7-point concentration data, fold relative to vehicle control. In a few lines: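 Cells were cultured 72 h, seeded at 5,000/well and dosed with seven concentrations (3.16-fold apart) for 48 h. HTRF on lysates, read at 665 and 620 nm, gave blank-corrected ΔF values relative to DMSO. Potency is reported as EC1.5×, efficacy as maximal fold Smn increase.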

In data set [2] the test system is SMN2 minigene mRNA (SMN2-A minigene) in HEK293H cells. The data set is described as follows: SMN2 minigene mRNA splicing RT-qPCR assay in cultured cells. As to conditions: Homo sapiens, HEK293-H; concentration increasing full length SMN2 mRNA 1.5-fold relative to vehicle-treated cells; HEK293H cells with SMN2-A minigene, 24 hours, 7-point concentration data; read-out: EC1.5x for production of full length SMN2 mRNA. It counts as cell-based, human. In a few lines:
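EC1.5× values derive from a 24 h treatment of SMN2-A minigene HEK293H cells and GAPDH-normalized RT-qPCR of exon 7-included minigene mRNA relative to vehicle-treated cells.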

`CCCN1CCC(c2cc(C)c3nc(-c4cc5c(C)nc(C)cn5n4)cc(=O)n3c2)CC1` [Compound 712, 2-(4,6-dimethylpyrazolo[1,5-a]pyrazin-2-yl)-9-methyl-7-(1-propylpiperidin-4-yl)-4H-pyrido[1,2-a]pyrimidin-4-one]: the melting point was 216 to 223 °C. In data set [1], the “EC1.5x for Smn protein expression” value is given as “**** (an EC1.5x≤0.3 μM is indicated by four stars (****))” and the “maximum fold (Fold) increase of Smn protein” value (shortened to “maximum fold (Fold) increase”) is “***** (a fold increase >1.65 is indicated by five stars (*****))”. Also, the EC (1.5-fold increase) in data set [2] is below 0.1 µM.
Take `Cc1cn2cc(-c3cc(=O)n4cc(N5CCCN(C)CC5)ccc4n3)cc(Cl)c2n1` [Compound 289, 2-(8-chloro-2-methylimidazo[1,2-a]pyridin-6-yl)-7-(4-methyl-1,4-diazepan-1-yl)-4H-pyrido[1,2-a]pyrimidin-4-one]: the melting point was in the range of 239 to 244 °C. In data set [1], the “EC1.5x for Smn protein expression” value is “**** (an EC1.5x≤0.3 μM is indicated by four stars (****))”; the “maximum fold (Fold) increase” value is “**** (a fold increase between >1.5 and ≤1.65 is indicated by four stars (****))”. Also, the EC (1.5-fold increase) in data set [2] is below 0.1 µM.
In turn, `Cc1cn2nc(-c3cc(=O)n4cc(N5CCC(N(C)CCO)CC5)cc(C)c4n3)cc2c(C)n1` [Compound 582, 2-(4,6-dimethylpyrazolo[1,5-a]pyrazin-2-yl)-7-{4-[(2-hydroxyethyl)(methyl)amino]piperidin-1-yl}-9-methyl-4H-pyrido[1,2-a]pyrimidin-4-one] gave a melting point of 250 to 259 °C. Further, in data set [1], the “EC1.5x for Smn protein expression” value was “**** (an EC1.5x≤0.3 μM is indicated by four stars (****))” and the “maximum fold (Fold) increase” value is given as “***** (a fold increase >1.65 is indicated by five stars (*****))”. Moreover, the EC (1.5-fold increase) in data set [2] was below 0.1 µM.
In turn, `O=c1cc(-c2ccc3[nH]ccc3c2)nc2ccc(N3CCNCC3)cn12` [Cpd 98, 2-(1H-indol-5-yl)-7-(piperazin-1-yl)-4H-pyrido[1,2-a]pyrimidin-4-one] returned a melting point of 266 to 272 °C. Besides, the “maximum fold (Fold) increase” value in data set [1] is “*** (a fold increase between >1.35 and ≤1.5 is indicated by three stars (***))”. The EC (1.5-fold increase) in data set [2] was 1 to 3 µM.
`Cc1cc(-c2cc(=O)n3cc(N4CCN(C)[C@@H](C)C4)ccc3n2)cc2cn(C)nc12` [Compound 751, 2-(2,7-dimethyl-2H-indazol-5-yl)-7-[(3S)-3,4-dimethylpiperazin-1-yl]-4H-pyrido[1,2-a]pyrimidin-4-one] displayed a melting point of 202 to 204 °C. Further, in data set [1], the “EC1.5x for Smn protein expression” value is “**** (an EC1.5x≤0.3 μM is indicated by four stars (****))” and the “maximum fold (Fold) increase” value was “***** (a fold increase >1.65 is indicated by five stars (*****))”. The EC (1.5-fold increase) in data set [2] is below 0.1 µM.
Consider `COc1ccc(-c2cc(=O)n3cc(N4CCN[C@@H](C)C4)ccc3c2)cc1OC` [Cpd 91, 2-(3,4-dimethoxyphenyl)-7-[(3S)-3-methylpiperazin-1-yl]-4H-quinolizin-4-one], for which the melting point fell in the range of 243 to 245 °C. The “maximum fold (Fold) increase” value in data set [1] was “** (a fold increase between >1.2 and ≤1.35 is indicated by two stars (**))”. Besides, the EC (1.5-fold increase) in data set [2] was in the range of 1 to 3 µM.
`Cc1nc2c(F)cc(-c3cc(=O)n4cc(C5=CCN(C)CC5)ccc4n3)cc2o1` [Compound 300, 2-(4-fluoro-2-methyl-1,3-benzoxazol-6-yl)-7-(1-methyl-1,2,3,6-tetrahydropyridin-4-yl)-4H-pyrido[1,2-a]pyrimidin-4-one] yielded a melting point of 178 to 181 °C. For the same molecule, in data set [1], the “EC1.5x for Smn protein expression” value was “**** (an EC1.5x≤0.3 μM is indicated by four stars (****))” and the “maximum fold (Fold) increase” value is given as “***** (a fold increase >1.65 is indicated by five stars (*****))”. Also, in data set [2], the EC (1.5-fold increase) was below 0.1 µM.
As to `Cc1cn2nc(-c3cc(=O)n4cc(N5CCN6CCC[C@@H]6C5)ccc4n3)cc2cn1` [Compound 467, 7-[(8aR)-hexahydropyrrolo[1,2-a]pyrazin-2(1H)-yl]-2-(6-methylpyrazolo[1,5-a]pyrazin-2-yl)-4H-pyrido[1,2-a]pyrimidin-4-one], the melting point fell in the range of 240 to 250 °C. Besides, in data set [1], the “EC1.5x for Smn protein expression” value is on record as “**** (an EC1.5x≤0.3 μM is indicated by four stars (****))” and the “maximum fold (Fold) increase” value is reported as “***** (a fold increase >1.65 is indicated by five stars (*****))”. In addition, in data set [2], the EC (1.5-fold increase) was below 0.1 µM.
The molecule `CCN1CCN(c2ccc3nc(-c4ccn5cc(C)nc5c4)cc(=O)n3c2)CC1` [Compound 558, 7-(4-ethylpiperazin-1-yl)-2-(2-methylimidazo[1,2-a]pyridin-7-yl)-4H-pyrido[1,2-a]pyrimidin-4-one] yielded a melting point of 219 to 222 °C. In addition, the “maximum fold (Fold) increase” value in data set [1] is “** (a fold increase between >1.2 and ≤1.35 is indicated by two stars (**))”. Further, in data set [2], the EC (1.5-fold increase) lay within 1 to 3 µM.
The molecule `Cc1nc2ccc(-c3cc(=O)n4cc(N5CCN(C)CC5)ccc4n3)cc2[nH]1` [Compound 689, 2-(2-methyl-1H-benzimidazol-6-yl)-7-(4-methylpiperazin-1-yl)-4H-pyrido[1,2-a]pyrimidin-4-one] came in with a melting point of 292 to 294 °C. Besides, in data set [1], the “EC1.5x for Smn protein expression” value was “*** (an EC1.5× between >0.3 μM and ≤1 μM is indicated by three stars (***))”; the “maximum fold (Fold) increase” value is “**** (a fold increase between >1.5 and ≤1.65 is indicated by four stars (****))”. Also, in data set [2], the EC (1.5-fold increase) fell in the range of 0.1 to 0.3 µM.
With `CCc1nc(C)cn2nc(-c3cc(=O)n4cc(N5CCN(C)[C@H](C)C5)ccc4n3)cc12` [Cpd 629, 7-[(3R)-3,4-dimethylpiperazin-1-yl]-2-(4-ethyl-6-methylpyrazolo[1,5-a]pyrazin-2-yl)-4H-pyrido[1,2-a]pyrimidin-4-one], the melting point fell in the range of 257 to 259 °C. Besides, in data set [1], the “EC1.5x for Smn protein expression” value is recorded as “**** (an EC1.5x≤0.3 μM is indicated by four stars (****))” and the “maximum fold (Fold) increase” value was “***** (a fold increase >1.65 is indicated by five stars (*****))”. Also, the EC (1.5-fold increase) in data set [2] was below 0.1 µM.
On to `Cc1cn2nc(-c3cc(=O)n4cc(N5CCN[C@@H](C)C5)ccc4n3)cc2cn1` [Compound 441, 7-[(3S)-3-methylpiperazin-1-yl]-2-(6-methylpyrazolo[1,5-a]pyrazin-2-yl)-4H-pyrido[1,2-a]pyrimidin-4-one], for which the melting point was in the range of 235 to 240 °C. Moreover, in data set [1], the “EC1.5x for Smn protein expression” value was “**** (an EC1.5x≤0.3 μM is indicated by four stars (****))” and the “maximum fold (Fold) increase” value was “***** (a fold increase >1.65 is indicated by five stars (*****))”. In addition, in data set [2], the EC (1.5-fold increase) was below 0.1 µM.
In the case of `COc1ccc(-c2cc(=O)n3cc(-c4ccnc(C)c4)ccc3n2)cc1OC` [Compound 122, 2-(3,4-dimethoxyphenyl)-7-(2-methylpyridin-4-yl)-4H-pyrido[1,2-a]pyrimidin-4-one], the melting point is 197 to 200 °C. For the same molecule, in data set [1], the “maximum fold (Fold) increase” value was “*** (a fold increase between >1.35 and ≤1.5 is indicated by three stars (***))”. Moreover, the EC (1.5-fold increase) in data set [2] is 1 to 3 µM.
In the case of `Cc1nc2ccc(-c3cc(=O)n4cc(N5CCN(C)[C@H](C)C5)ccc4n3)cc2o1` [Compound 244, 7-[(3R)-3,4-dimethylpiperazin-1-yl]-2-(2-methyl-1,3-benzoxazol-6-yl)-4H-pyrido[1,2-a]pyrimidin-4-one], the melting point lay in the range of 181 to 187 °C. Moreover, in data set [1], the “EC1.5x for Smn protein expression” value was “**** (an EC1.5x≤0.3 μM is indicated by four stars (****))”; the “maximum fold (Fold) increase” value was “**** (a fold increase between >1.5 and ≤1.65 is indicated by four stars (****))”. In data set [2], the EC (1.5-fold increase) is below 0.1 µM.
With `Cc1nc2ccc(-c3cc(=O)n4cc(N5CCN6CCC[C@@H]6C5)ccc4n3)cc2s1` [Compound 284, 7-[(8aR)-hexahydropyrrolo[1,2-a]pyrazin-2(1H)-yl]-2-(2-methyl-1,3-benzothiazol-6-yl)-4H-pyrido[1,2-a]pyrimidin-4-one], the melting point lay in the range of 254 to 256 °C. For the same molecule, in data set [1], the “EC1.5x for Smn protein expression” value is “*** (an EC1.5× between >0.3 μM and ≤1 μM is indicated by three stars (***))”; the “maximum fold (Fold) increase” value is “**** (a fold increase between >1.5 and ≤1.65 is indicated by four stars (****))”. Also, the EC (1.5-fold increase) in data set [2] lay in the range of 0.3 to 1 µM.
The molecule `COc1ccc(-c2ccc3nc(N4CC[C@H](N(C)C)C4)cc(=O)n3c2)cc1F` [Compound 278, 2-[(3S)-3-(dimethylamino)pyrrolidin-1-yl]-7-(3-fluoro-4-methoxyphenyl)-4H-pyrido[1,2-a]pyrimidin-4-one] gave a melting point of 167 to 169 °C. In addition, in data set [1], the “maximum fold (Fold) increase” value was “** (a fold increase between >1.2 and ≤1.35 is indicated by two stars (**))”. Moreover, the EC (1.5-fold increase) in data set [2] fell in the range of 1 to 3 µM.
For the molecule `Cn1ncc2cc(-c3cc(=O)n4cc(C5CCN(CCO)CC5)ccc4n3)ccc21` [Compound 605, 7-[1-(2-hydroxyethyl)piperidin-4-yl]-2-(1-methyl-1H-indazol-5-yl)-4H-pyrido[1,2-a]pyrimidin-4-one], the melting point lay in the range of 204 to 206 °C. Besides, in data set [1], the “EC1.5x for Smn protein expression” value was “*** (an EC1.5× between >0.3 μM and ≤1 μM is indicated by three stars (***))”; the “maximum fold (Fold) increase” value is “***** (a fold increase >1.65 is indicated by five stars (*****))”. For the same molecule, the EC (1.5-fold increase) in data set [2] is 0.3 to 1 µM.
